Assay results reported in the supplement of paper PMC10307832.

Columns and labels:
Experiment in all cases: relative viability (nuclei count vs DMSO), 5 days (fraction); higher = more cells survive
NCI-H1355 = tested on: NCI-H1355
Procedure, shortened: (§1)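 Dosing by pin tool came one day after lung cancer cell lines were seeded in 1536-well plates, using either one drug or a fixed anchor-drug dose plus five library-drug doses (not always all listed) in √10 steps. After 5 days, nuclei were counted on 4× images. Relative viability is treated-well nuclei count divided by vehicle-well nuclei count, and values are medians of duplicate plates.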

NCI-H2009 = tested on: NCI-H2009
Procedure, shortened: as §1

NCI-H1755 = tested on: NCI-H1755
Procedure, shortened: as §1

NCI-H358 = tested on: NCI-H358
Procedure, shortened: as §1

NCI-H647 = tested on: NCI-H647
Procedure, shortened: as §1

NCI-H2228 = tested on: NCI-H2228
Procedure, shortened: as §1

COR-L23 = tested on: COR-L23
Procedure, shortened: as §1

NCI-H1793 = tested on: NCI-H1793
Procedure, shortened: as §1

HOP-62 = tested on: HOP-62
Procedure, shortened: as §1

SK-MES-1 = tested on: SK-MES-1
Procedure, shortened: as §1

HCC-15 = tested on: HCC-15
Procedure, shortened: as §1

COR-L 105 = tested on: COR-L 105
Procedure, shortened: as §1

NCI-H2342 = tested on: NCI-H2342
Procedure, shortened: as §1

NCI-H1993 = tested on: NCI-H1993
Procedure, shortened: as §1

EKVX = tested on: EKVX
Procedure, shortened: as §1

HARA = tested on: HARA
Procedure, shortened: as §1

NCI-H1734 = tested on: NCI-H1734
Procedure, shortened: as §1

NCI-H1395 = tested on: NCI-H1395
Procedure, shortened: as §1

UMC-11 = tested on: UMC-11
Procedure, shortened: as §1

NCI-H2170 = tested on: NCI-H2170
Procedure, shortened: as §1

NCI-H2347 = tested on: NCI-H2347
Procedure, shortened: as §1

PC-14 = tested on: PC-14
Procedure, shortened: as §1

NCI-H838 = tested on: NCI-H838
Procedure, shortened: as §1

`O=C(O)c1ccc(-c2c[nH]c3ncc(-c4ccccc4)cc23)cc1C1CCCC1` + Cc1cc(Nc2cc(N3CCN(C)CC3)nc(Sc3ccc(NC(=O)C4CC4)cc3)n2)n[nH]1 [Tozasertib] (partner 0.1 µM) was tested. Which relative viability (NCI-H1355; first compound 0.04 µM) did it give?
The relative viability was 0.56.

And the relative viability (NCI-H1355; first compound 0.1265 µM)?
Its relative viability is 0.632.

What about the relative viability (NCI-H1355; first compound 0.4 µM) of the same molecule?
Its relative viability is 0.522.

And the relative viability (NCI-H1355; first compound 1.265 µM)?
The relative viability was 0.281.

And the relative viability (NCI-H2009; first compound 0.04 µM)?
The relative viability was 0.734.

What about the relative viability (NCI-H2009; first compound 0.1265 µM) of the same molecule?
The relative viability was 0.776.

And the relative viability (NCI-H2009; first compound 0.4 µM)?
Its relative viability is 0.681.

What about the relative viability (NCI-H2009; first compound 1.265 µM) of the same molecule?
The relative viability was 0.564.

What about the relative viability (NCI-H1755; first compound 0.04 µM) of the same molecule?
Its relative viability is 0.609.

And the relative viability (NCI-H1755; first compound 0.1265 µM)?
Its relative viability is 0.628.

What about the relative viability (NCI-H1755; first compound 0.4 µM) of the same molecule?
The relative viability was 0.514.

What about the relative viability (NCI-H1755; first compound 1.265 µM) of the same molecule?
The relative viability was 0.509.

And the relative viability (NCI-H358; first compound 0.04 µM)?
The relative viability was 0.0826.

And the relative viability (NCI-H358; first compound 0.1265 µM)?
The relative viability was 0.107.

And the relative viability (NCI-H358; first compound 0.4 µM)?
The relative viability was 0.0884.

And the relative viability (NCI-H358; first compound 1.265 µM)?
The relative viability was 0.0978.

And the relative viability (NCI-H647; first compound 0.04 µM)?
The relative viability was 0.223.

And the relative viability (NCI-H647; first compound 0.1265 µM)?
The relative viability was 0.381.

And the relative viability (NCI-H647; first compound 0.4 µM)?
Its relative viability is 0.337.

And the relative viability (NCI-H647; first compound 1.265 µM)?
The relative viability was 0.22.

What about the relative viability (NCI-H2228; first compound 0.04 µM) of the same molecule?
Its relative viability is 0.244.

And the relative viability (NCI-H2228; first compound 0.1265 µM)?
Its relative viability is 0.272.

And the relative viability (NCI-H2228; first compound 0.4 µM)?
The relative viability was 0.218.

And the relative viability (NCI-H2228; first compound 1.265 µM)?
Its relative viability is 0.186.

And the relative viability (COR-L23; first compound 0.04 µM)?
The relative viability was 0.208.

What about the relative viability (COR-L23; first compound 0.1265 µM) of the same molecule?
The relative viability was 0.177.

What about the relative viability (COR-L23; first compound 0.4 µM) of the same molecule?
The relative viability was 0.166.

What about the relative viability (COR-L23; first compound 1.265 µM) of the same molecule?
The relative viability was 0.119.

And the relative viability (NCI-H1793; first compound 0.04 µM)?
The relative viability was 0.345.

And the relative viability (NCI-H1793; first compound 0.1265 µM)?
Its relative viability is 0.323.

What about the relative viability (NCI-H1793; first compound 0.4 µM) of the same molecule?
Its relative viability is 0.513.

And the relative viability (NCI-H1793; first compound 1.265 µM)?
The relative viability was 0.266.

And the relative viability (HOP-62; first compound 0.04 µM)?
The relative viability was 0.393.

And the relative viability (HOP-62; first compound 0.1265 µM)?
Its relative viability is 0.332.

What about the relative viability (HOP-62; first compound 0.4 µM) of the same molecule?
The relative viability was 0.304.

And the relative viability (HOP-62; first compound 1.265 µM)?
Its relative viability is 0.308.

What about the relative viability (SK-MES-1; first compound 0.04 µM) of the same molecule?
The relative viability was 0.93.

What about the relative viability (SK-MES-1; first compound 0.1265 µM) of the same molecule?
The relative viability was 0.973.

And the relative viability (SK-MES-1; first compound 0.4 µM)?
Its relative viability is 0.748.

And the relative viability (SK-MES-1; first compound 1.265 µM)?
Its relative viability is 0.396.

What about the relative viability (HCC-15; first compound 0.04 µM) of the same molecule?
Its relative viability is 0.403.

And the relative viability (HCC-15; first compound 0.1265 µM)?
Its relative viability is 0.502.

And the relative viability (HCC-15; first compound 0.4 µM)?
The relative viability was 0.307.

And the relative viability (HCC-15; first compound 1.265 µM)?
The relative viability was 0.151.

And the relative viability (COR-L 105; first compound 0.04 µM)?
Its relative viability is 0.304.

What about the relative viability (COR-L 105; first compound 0.1265 µM) of the same molecule?
Its relative viability is 0.36.

And the relative viability (COR-L 105; first compound 0.4 µM)?
Its relative viability is 0.357.

What about the relative viability (COR-L 105; first compound 1.265 µM) of the same molecule?
The relative viability was 0.36.

And the relative viability (NCI-H2342; first compound 0.04 µM)?
Its relative viability is 0.588.

What about the relative viability (NCI-H2342; first compound 0.1265 µM) of the same molecule?
The relative viability was 0.422.

And the relative viability (NCI-H2342; first compound 0.4 µM)?
Its relative viability is 0.445.

What about the relative viability (NCI-H2342; first compound 1.265 µM) of the same molecule?
The relative viability was 0.521.

And the relative viability (NCI-H1993; first compound 0.04 µM)?
Its relative viability is 0.556.

What about the relative viability (NCI-H1993; first compound 0.1265 µM) of the same molecule?
The relative viability was 0.604.

And the relative viability (NCI-H1993; first compound 0.4 µM)?
Its relative viability is 0.55.

And the relative viability (NCI-H1993; first compound 1.265 µM)?
Its relative viability is 0.606.

What about the relative viability (EKVX; first compound 0.04 µM) of the same molecule?
Its relative viability is 0.404.

And the relative viability (EKVX; first compound 0.1265 µM)?
The relative viability was 0.443.

What about the relative viability (EKVX; first compound 0.4 µM) of the same molecule?
Its relative viability is 0.416.

And the relative viability (EKVX; first compound 1.265 µM)?
Its relative viability is 0.364.

And the relative viability (HARA; first compound 0.04 µM)?
The relative viability was 0.104.

And the relative viability (HARA; first compound 0.1265 µM)?
The relative viability was 0.0989.

What about the relative viability (HARA; first compound 0.4 µM) of the same molecule?
Its relative viability is 0.197.

What about the relative viability (HARA; first compound 1.265 µM) of the same molecule?
The relative viability was 0.0904.

What about the relative viability (NCI-H1734; first compound 0.04 µM) of the same molecule?
Its relative viability is 0.284.

And the relative viability (NCI-H1734; first compound 0.1265 µM)?
The relative viability was 0.236.

What about the relative viability (NCI-H1734; first compound 0.4 µM) of the same molecule?
The relative viability was 0.247.

And the relative viability (NCI-H1734; first compound 1.265 µM)?
Its relative viability is 0.258.

What about the relative viability (NCI-H1395; first compound 0.04 µM) of the same molecule?
Its relative viability is 0.818.

And the relative viability (NCI-H1395; first compound 0.1265 µM)?
Its relative viability is 0.793.

And the relative viability (NCI-H1395; first compound 0.4 µM)?
Its relative viability is 0.676.

What about the relative viability (NCI-H1395; first compound 1.265 µM) of the same molecule?
The relative viability was 0.604.

What about the relative viability (UMC-11; first compound 0.04 µM) of the same molecule?
The relative viability was 0.189.

What about the relative viability (UMC-11; first compound 0.1265 µM) of the same molecule?
Its relative viability is 0.197.

What about the relative viability (UMC-11; first compound 0.4 µM) of the same molecule?
Its relative viability is 0.199.

And the relative viability (UMC-11; first compound 1.265 µM)?
The relative viability was 0.191.

What about the relative viability (NCI-H2170; first compound 0.04 µM) of the same molecule?
Its relative viability is 0.721.

What about the relative viability (NCI-H2170; first compound 0.1265 µM) of the same molecule?
The relative viability was 0.726.

What about the relative viability (NCI-H2170; first compound 0.4 µM) of the same molecule?
Its relative viability is 0.679.

And the relative viability (NCI-H2170; first compound 1.265 µM)?
The relative viability was 0.612.

What about the relative viability (NCI-H2347; first compound 0.04 µM) of the same molecule?
Its relative viability is 0.606.

What about the relative viability (NCI-H2347; first compound 0.1265 µM) of the same molecule?
Its relative viability is 0.643.

And the relative viability (NCI-H2347; first compound 0.4 µM)?
The relative viability was 0.522.

And the relative viability (NCI-H2347; first compound 1.265 µM)?
The relative viability was 0.5.

And the relative viability (PC-14; first compound 0.04 µM)?
Its relative viability is 0.599.

What about the relative viability (PC-14; first compound 0.1265 µM) of the same molecule?
Its relative viability is 0.638.

And the relative viability (PC-14; first compound 0.4 µM)?
The relative viability was 0.484.

What about the relative viability (PC-14; first compound 1.265 µM) of the same molecule?
The relative viability was 0.508.

What about the relative viability (NCI-H838; first compound 0.04 µM) of the same molecule?
Its relative viability is 0.291.

What about the relative viability (NCI-H838; first compound 0.1265 µM) of the same molecule?
The relative viability was 0.274.

And the relative viability (NCI-H838; first compound 0.4 µM)?
The relative viability was 0.232.

And the relative viability (NCI-H838; first compound 1.265 µM)?
The relative viability was 0.229.
